Reference: ChEMBL document CHEMBL1268913, “Carbocycles related to oseltamivir as influenza virus group-1-specific neuraminidase inhibitors. Binding to N1 enzymes in the context of virus-like particles” (J Med Chem, 2010)

test system: unidentified influenza virus; experiment: Antiviral activity against avian influenza virus H5N1; assay type: functional, organism-based

Q: With `CCC(O)c1cn([C@H]2C=C(C(=O)O)O[C@@H]([C@H](O)[C@H](O)CO)[C@@H]2NC(C)=O)nn1` (some centres not stated) as the compound, how does the EC50 read?
A: 6.4 µM

target: Neuraminidase (Influenza A virus, UniProt B4URF0); experiment: Inhibition of influenza A nuraminidase N1
Sequence (B4URF0 whole entry): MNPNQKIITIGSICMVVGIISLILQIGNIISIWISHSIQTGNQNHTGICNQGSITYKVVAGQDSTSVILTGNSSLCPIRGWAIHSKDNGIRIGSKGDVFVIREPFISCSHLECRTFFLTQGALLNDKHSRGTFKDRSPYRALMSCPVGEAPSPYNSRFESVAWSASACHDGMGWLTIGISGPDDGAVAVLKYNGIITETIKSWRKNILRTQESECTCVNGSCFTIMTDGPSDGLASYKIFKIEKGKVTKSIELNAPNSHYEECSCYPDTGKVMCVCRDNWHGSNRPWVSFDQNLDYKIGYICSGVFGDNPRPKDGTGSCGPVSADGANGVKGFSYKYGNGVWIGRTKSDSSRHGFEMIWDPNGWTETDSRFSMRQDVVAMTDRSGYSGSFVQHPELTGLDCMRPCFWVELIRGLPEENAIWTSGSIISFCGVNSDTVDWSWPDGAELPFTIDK

Q: For `CCC(CC)O[C@@H]1CC(C(=O)O)=C[C@H](n2cc(CCc3ccccc3)nn2)[C@H]1NC(C)=O`, which Ki is on record?
A: 1.2 µM

Q: For `CCC(CC)O[C@@H]1CC(C(=O)O)=C[C@H](n2cc(C(O)CC)nn2)[C@H]1NC(C)=O` (some centres not stated), which Ki is on record?
A: 0.072 µM

Q: For `CCC(CC)O[C@@H]1CC(C(=O)O)=C[C@H](NC(=N)N)[C@H]1NC(C)=O`, which Ki is on record?
A: 0.00046 µM

Q: With `CCC(CC)O[C@@H]1CC(C(=O)O)=C[C@H](n2cc(CCCO)nn2)[C@H]1NC(C)=O` as the compound, how does the Ki read?
A: 0.46 µM

Q: How did the Ki turn out when `CCC(CC)O[C@@H]1CC(C(=O)O)=C[C@H](n2cc(C(C)(C)O)nn2)[C@H]1NC(C)=O` was run?
A: 0.13 µM

Q: `CCC(CC)O[C@@H]1CC(C(=O)O)=C[C@H](n2cc(C3(O)CCCCC3)nn2)[C@H]1NC(C)=O` was tested. Which IC50 did it give?
A: 4.8 µM

Q: `CCC(CC)O[C@@H]1CC(C(=O)O)=C[C@H](n2cc(C3(O)CCCC3)nn2)[C@H]1NC(C)=O` was tested. Which IC50 did it give?
A: 11 µM

Q: For `CCC(CC)O[C@@H]1CC(C(=O)O)=C[C@H](n2cc([C@]3(O)CC[C@H]4[C@@H]5CCc6cc(O)ccc6[C@H]5CC[C@@]43C)nn2)[C@H]1NC(C)=O`, which Ki is on record?
A: 5.8 µM

Q: With `CCC(CC)O[C@@H]1CC(C(=O)O)C=C(n2cc(CCc3ccccc3)nn2)[C@H]1NC(C)=O` (mixture of isomers) as the compound, how does the Ki read?
A: 60 µM

Q: How did the Ki turn out when `CCC(CC)O[C@@H]1CC(C(=O)O)C=C(n2cc(C(C)(C)O)nn2)[C@H]1NC(C)=O` (mixture of isomers) was run?
A: 19 µM

Q: For `CC(=O)N[C@H]1[C@H]([C@H](O)[C@H](O)CO)OC(C(=O)O)=C[C@@H]1O` [NEU5AC2EN], which Ki is on record?
A: 5.9 µM
